Laboratory results reported in US20100298347A1, “SUBSTITUTED 2-NAPHTHOIC ACIDS AS ANTAGONISTS OF GPR105 ACTIVITY” (MERCK FROSST CANADA LTD, priority 2007, published 2010).

Target: T1, chimpanzee GPR105 protein (Pan troglodytes, UniProt A0A2J8P2M1)
T1 construct: expressed in transfected cells
T1 sequence (A0A2J8P2M1 1-338): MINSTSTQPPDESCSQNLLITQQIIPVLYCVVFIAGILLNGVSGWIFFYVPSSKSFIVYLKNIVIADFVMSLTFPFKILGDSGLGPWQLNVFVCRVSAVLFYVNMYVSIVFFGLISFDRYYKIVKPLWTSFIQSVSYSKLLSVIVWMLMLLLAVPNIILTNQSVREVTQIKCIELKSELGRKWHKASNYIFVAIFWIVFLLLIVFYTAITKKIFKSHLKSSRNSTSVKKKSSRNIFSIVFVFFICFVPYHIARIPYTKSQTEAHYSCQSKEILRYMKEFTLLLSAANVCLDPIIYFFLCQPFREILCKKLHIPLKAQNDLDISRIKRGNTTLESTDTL
Test: Cell-Binding Assay: FLIPR calcium signaling in HEK/GPR105/Gqi5 cells, inhibition of UDP-glucose agonist
Format: cell-based
Conditions: HEK cells expressing chimpanzee GPR105 and Gqi5; UDP-glucose agonist at EC80; inhibition of Ca2+ signaling by FLIPR
Experimental: A stable HEK clonal cell line expressing the chimpanzee GPR105 protein and the chimeric G protein Gqi5 was developed. The chimeric Gqi5 forces the coupling of GPR105 through the Gq (calcium) pathway and allows for monitoring of calcium signaling using a calcium binding fluorescent dye and the FLIPR (fluorometric imaging plate reader, MDS Sciex). 12,500 HEK/GPR105/Gqi5 expressing cells were plated in 25 μL Dulbecco's Modified Eagle's Medium (DMEM) containing 10% fetal bovine serum (FBS) onto 384-well, poly-D-lysine coated plates. Cells were incubated overnight at 37° C. and 5% CO2 to form a monolayer. On the following day, 30 μl, of fluorescent no-wash dye was added to the cell monolayer and the plate was incubated for […] at 37° C., 5% CO2. […] of compound in 100% DMSO was added to cell/dye incubation using acoustic dispensing (Echo™, Labcyte). Following a 20 minute incubation of compound at room temperature, 6.25 μL of UDP-glucose agonist (at EC80) in Hank's Balanced Salt Solution (HBSS) containing 20 mM Hepes was added to cells and Ca^2+ signaling was monitored by FLIPR. Quantitation of the % inhibition of Ca^2+ signaling by antagonist was calculated using the maximum fluorescent signal detected. IC50's for the compounds of structural formula (I) were calculated as follows:
a.) Basal=incubation of cells+DMSO+Buffer; b.) EC80=incubation of cells of DMSO+agonist to achieve 80% maximum stimulation of calcium release; c.) Compound=incubation of cells+antagonist in DMSO+EC80 agonist; d.) Calcium release monitored by Fluorescence (RFU relative fluorescence units) using the FLIPR; e.) The percentage of inhibition was calculated according to the equation: (1−(compound sample−Basal)/(EC80−Basal))×100; f.) The percentage of inhibition at each dose was plotted, the Four Parameter Logistic Fit performed to draw the curve and the IC50 is the compound dose where the % inhibition=50%.

SMILES	IC50 [nM]
Cc1cccc(C)c1COc1ccc2c(-c3ccc(CO)cc3)cc(C(=O)O)cc2c1	16.6
CS(=O)(=O)c1cc(-c2cc(C(=O)O)cc3cc(-c4ccc(OC(F)(F)F)cc4)ccc23)cs1	23.9
Cc1ccc(Cl)c(COc2ccc3c(-c4ccsc4)cc(C(=O)O)cc3c2)c1F	20.3
Cc1cccc(C)c1COc1ccc2c(-c3ccc(C=O)cc3)cc(C(=O)O)cc2c1	22.5
O=C(O)c1cc(-c2ccsc2)c2ccc(OCc3cc(C(F)(F)F)ccc3Cl)cc2c1	26
O=C(O)c1cc(-c2ccc(C3CCNCC3)cc2)c2ccc(-c3ccc(C(F)(F)F)cc3)cc2c1	2.2
Cc1ccc(C(F)(F)F)cc1COc1ccc2c(-c3ccsc3)cc(C(=O)O)cc2c1	16.8
O=C(O)c1cc2cc(-c3ccc(C(F)(F)F)cc3)ccc2c(-c2ccc([C@H](O)C(F)(F)F)cc2)c1F	25.5
O=C(O)c1cc(-c2ccsc2)c2ccc(OCc3c(Cl)cccc3Br)cc2c1	17.8
O=C(O)c1cc2cc(-c3ccc(C(F)(F)F)cc3)ccc2c(-c2ccc([C@@H](O)C(F)F)cc2)c1F	24.8
Cc1cccc(C)c1COc1ccc2c(-c3ccc4c(c3)OCO4)cc(C(=O)O)cc2c1	19.4
Cc1cccc(C)c1COc1ccc2c(-c3ccsc3)cc(C(=O)O)cc2c1	16.3
Cc1cccc(C)c1COc1ccc2c(-c3ccc(O)cc3)cc(C(=O)O)cc2c1	18.4
Cc1cccc(C)c1COc1ccc2c(OCc3ccccc3)cc(C(=O)O)cc2c1	21.2
CC(=O)c1ccc(-c2cc(C(=O)O)cc3cc(OCc4c(C)cccc4C)ccc23)cc1	17.5
O=C(O)c1cc(-c2ccccc2)c2ccc(OCc3c(Cl)ccc(Cl)c3Cl)cc2c1	21.7
O=C(O)c1cc(-c2ccsc2)c2ccc(OCc3c(F)cccc3F)cc2c1	22.6
O=C(O)c1cc(-c2ccsc2)c2ccc(OCc3c(Br)cccc3Br)cc2c1	24.3

The remaining compounds from weak to strong by IC50, led by results:

IC50 [nM]	SMILES
16.1	Cc1cccc(C)c1COc1ccc2c(-c3ccc(C(C)(C)O)cc3)cc(C(=O)O)cc2c1
15.1	O=C(O)c1cc(-c2ccsc2)c2ccc(OCc3c(Cl)cncc3Cl)cc2c1 [drawing 30]
14.4	Cc1cc(F)cc(C)c1COc1ccc2c(-c3ccsc3)cc(C(=O)O)cc2c1
14.1	COc1ccccc1COc1cc(C(=O)O)cc2cc(OCc3c(C)cccc3C)ccc12
14	O=C(O)c1cc(-c2ccc([C@@H](O)C(F)F)cc2)c2ccc(-c3ccc(F)cc3)cc2c1
13.9	C[S+]([O-])c1ccc(-c2cc(C(=O)O)cc3cc(-c4ccc(C(F)(F)F)cc4)ccc23)cc1 (centres unmarked)
13.3	O=C(O)c1cc(-c2ccc(-c3nnc[nH]3)cc2)c2ccc(-c3ccc(C(F)(F)F)cc3)cc2c1
13	O=C(O)c1cc(-c2ccc(C(O)C(F)(F)F)cc2)c2ccc(-c3ccc(C(F)(F)F)cc3)cc2c1 (centres unmarked)
12.7	O=C(O)c1cc(-c2ccsc2)c2ccc(-c3ccc(OC(F)(F)F)cc3)cc2c1
12.5	O=C(O)c1cc(-c2ccsc2)c2ccc(OCc3c(F)cccc3Cl)cc2c1
12.4	CSc1ccc(-c2ccc3c(-c4ccc([C@@H](O)C(F)F)cc4)cc(C(=O)O)cc3c2)cc1
12.2	CS(=O)(=O)c1cc(-c2cc(C(=O)O)cc3cc(-c4ccc(C(F)(F)F)cc4)ccc23)cs1
11.9	Cc1cccc(C)c1COc1ccc2c(-c3ccc(S(C)(=O)=O)cc3)cc(C(=O)O)cc2c1
11.3	O=C(O)c1cc(-c2ccc([C@@H](O)C(F)(F)F)cc2)c2ccc(-c3ccc(C(F)(F)F)cc3)cc2c1
11	Cc1cccc(C)c1COc1ccc2c(-c3ccc(C(=O)O)cc3)cc(C(=O)O)cc2c1
10.5	O=C(O)c1cc(-c2ccsc2)c2ccc(OCc3c(F)cc(F)cc3F)cc2c1
9.4	O=C(O)c1cc(-c2ccsc2)c2ccc(OCc3c(Cl)cccc3Cl)cc2c1
7.5	O=C(O)c1cc(-c2ccsc2)c2ccc(OCc3c(Cl)cncc3Cl)cc2c1 [drawing 14]
7.3	O=C(O)c1cc(-c2ccsc2)c2ccc(OCc3c(Cl)ccc(Cl)c3Cl)cc2c1
7.1	O=C(O)c1cc(-c2csc(C(O)C(F)F)c2)c2ccc(-c3ccc(C(F)(F)F)cc3)cc2c1 (centres unmarked)
6.3	O=C(O)c1cc(-c2ccc(C3(O)CCNCC3)cc2)c2ccc(-c3ccc(C(F)(F)F)cc3)cc2c1
5.4	O=C(O)c1cc(-c2ccc([C@@H](O)C(F)F)cc2)c2ccc(-c3ccc(C(F)(F)F)cc3)cc2c1
3	O=C(O)c1cc(-c2ccc(-c3cn4cccnc4n3)cc2)c2ccc(-c3ccc(C(F)(F)F)cc3)cc2c1
